# From patent US20180084784A1, “METHODS AND COMPOSITIONS FOR CONTROLLING FUNGUS AND FUNGAL SPORES AND IMPROVING PLANT QUALITY” (BAYER CROPSCIENCE LP, priority 2016, published 2018)
# Read-outs that look alike come from different tables or passages of the source.
# Key:
# [1] = system: Pythium aphanidermatum zoospores
# Experimental: Tests were conducted on fescue leaf blades. […] Two agar plugs containing Pythium aphanidermatum mycelium were placed in the jar containing the fescue leaves and allowed to incubate for 5 days.
# A 1.0 ml aliquot was removed from each treatment and streaked onto potato dextrose agar. […] After five days the plates were examined for Pythium growth.
# [2] = system: Pythium aphanidermatum zoospores; test: Example 3: hydrogen peroxide alone and hydrolase enzyme alone, 12 days incubation; format: cell-based
# Experimental: Tests were conducted on fescue leaf blades. […] Two agar plugs containing Pythium aphanidermatum mycelium were placed in the jar containing the fescue leaves and allowed to incubate for 12 days. Ten jars were used in total. […] Each of these jars was subject to the following hydrogen peroxide treatments: […] The remaining five jars were used for testing the effect of hydrolase enzyme alone. Each of these jars was subject to the following enzyme treatments: […] (2) 0.016% enzyme v/v concentration; (3) 0.0016% enzyme v/v concentration; […]
# [3] = system: Pythium aphanidermatum zoospores; test: Example 4: hydrogen peroxide alone and enzyme alone, 8 days incubation; format: cell-based
# Experimental: Tests were conducted on fescue leaf blades. […] Eleven jars were used in total. […] The remaining six jars were used for testing the effect of hydrolase enzyme alone. Each of these jars was subject to the following enzyme treatments: (1) untreated; (2) 0.16% enzyme v/v concentration; (3) 0.088% enzyme v/v concentration; […] (5) 0.0142% enzyme v/v concentration; and (6) 0.0124% enzyme v/v concentration.
# [4] = system: Pythium aphanidermatum zoospores; test: Example 5: enzyme and hydrogen peroxide, alone and combined; format: cell-based
# Experimental: (§1) Tests were conducted on fescue leaf blades. […] Two agar plugs containing Pythium aphanidermatum mycelium were placed in the jar containing the fescue leaves and allowed to incubate for 7 days.
# (§2) A 1.0 ml aliquot was removed from each treatment and streaked onto potato dextrose agar.
# [5] = system: Pythium aphanidermatum zoospores; test: Example 6: enzyme and hydrogen peroxide, alone and combined; format: cell-based
# Experimental: as §1, §2
# [6] = system: Pythium aphanidermatum zoospores; test: Example 8: enzyme and hydrogen peroxide, alone and combined; format: cell-based
# Experimental: as §1, §2
# [7] = system: Pythium aphanidermatum zoospores; test: Example 9: enzyme and hydrogen peroxide, alone and combined; format: cell-based
# Experimental: as §1
# A 1.0 mL aliquot was removed from each treatment and streaked onto potato dextrose agar.
# [8] = system: Pythium aphanidermatum zoospores; test: Example 7: enzyme and hydrogen peroxide, confirmation of Example 6
# Experimental: Tests were conducted on fescue leaf blades. Five one-inch long fescue leaf blades were placed in 100 ml water in a 250 ml jar and sterilized for 2 consecutive days for 20 min. Two agar plugs containing Pythium aphanidermatum mycelium were placed in the jar containing the fescue leaves and allowed to incubate for 7 days.
# A 1.0 ml aliquot was removed from each treatment and streaked onto potato dextrose agar. […] After three days the plates were examined for Pythium growth.
# [9] = 0.0003% hydrogen peroxide v/v concentration
# [10] = 0.003% hydrogen peroxide v/v concentration
# [11] = 0.03% hydrogen peroxide v/v concentration
# [12] = 0.006% hydrogen peroxide v/v concentration
# [13] = 0.012% hydrogen peroxide v/v concentration
# [14] = 0.014% hydrogen peroxide v/v concentration
# [15] = 0.016% hydrogen peroxide v/v concentration
# [16] = 0.018% hydrogen peroxide v/v concentration
# [17] = 0.02% hydrogen peroxide v/v concentration
smiles,measurement,setting,value
OO [hydrogen peroxide],% Reduction of Pythium,[1]; [9],0%
same,Number of plates (4 reps) with Pythium growth after 5 days,[1]; [9],4
same,% Reduction of Pythium,[1]; [10],0%
same,Number of plates (4 reps) with Pythium growth after 5 days,[1]; [10],4
same,% Reduction of Pythium,[1]; [11],75%
same,Number of plates (4 reps) with Pythium growth after 5 days,[1]; [11],1
same,% Reduction of Pythium,[1]; 0.3% hydrogen peroxide v/v concentration,100%
same,% Reduction of Pythium,[1]; 1.5% hydrogen peroxide v/v concentration,100%
same,% of Potato Dextrose Sugar Agar Plate Covered with Pythium,[2]; [10],100%
same,Number of plates (4 reps) with Pythium growth after 3 days,[2]; [10],4
same,% of Potato Dextrose Sugar Agar Plate Covered with Pythium,[2]; [12],50-90%
same,Number of plates (4 reps) with Pythium growth after 3 days,[2]; [12],4
same,% of Potato Dextrose Sugar Agar Plate Covered with Pythium,[2]; [13],<50%
same,Number of plates (4 reps) with Pythium growth after 3 days,[2]; [13],4
same,% of Potato Dextrose Sugar Agar Plate Covered with Pythium,[2]; [11],0%
same,Number of plates (4 reps) with Pythium growth after 3 days,[2]; [11],0
same,Pythium growth on plates,[2]; all tested concentrations of hydrogen peroxide except 0.03% v/v,grew on all plates
same,% of Potato Dextrose Sugar Agar Plate Covered with Pythium,[3]; [13],36.25%
same,% of Potato Dextrose Sugar Agar Plate Covered with Pythium,[3]; [14],60%
same,% of Potato Dextrose Sugar Agar Plate Covered with Pythium,[3]; [15],0%
same,% of Potato Dextrose Sugar Agar Plate Covered with Pythium,[3]; [16],0%
same,% of Potato Dextrose Sugar Agar Plate Covered with Pythium,[4]; [10],100%
same,Number of plates (4 reps) with Pythium growth after 3 days,[4]; [10],4
same,% of Potato Dextrose Sugar Agar Plate Covered with Pythium,[4]; [14],71.25%
same,Number of plates (4 reps) with Pythium growth after 3 days,[4]; [14],4
same,% of Potato Dextrose Sugar Agar Plate Covered with Pythium,[5]; [14],17.5%
same,Number of plates (4 reps) with Pythium growth after 3 days,[5]; [14],1
same,% of Potato Dextrose Sugar Agar Plate Covered with Pythium,[5]; [15],10%
same,Number of plates (4 reps) with Pythium growth after 3 days,[5]; [15],1
same,% of Potato Dextrose Sugar Agar Plate Covered with Pythium,[5]; [16],17.5%
same,Number of plates (4 reps) with Pythium growth after 3 days,[5]; [16],1
same,% of Potato Dextrose Sugar Agar Plate Covered with Pythium,[6]; [14],90%
same,Number of plates (4 reps) with Pythium growth after 3 days,[6]; [14],4
same,% of Potato Dextrose Sugar Agar Plate Covered with Pythium,[6]; [17],56.3%
same,Number of plates (4 reps) with Pythium growth after 3 days,[6]; [17],4
same,% of Potato Dextrose Sugar Agar Plate Covered with Pythium,[7]; [14],100%
same,Number of plates (4 reps) with Pythium growth after 3 days,[7]; [14],4
same,% of Potato Dextrose Sugar Agar Plate Covered with Pythium,[7]; [15],63.75%
same,Number of plates (4 reps) with Pythium growth after 3 days,[7]; [15],4
same,% of Potato Dextrose Sugar Agar Plate Covered with Pythium,[7]; [16],91.25%
same,Number of plates (4 reps) with Pythium growth after 3 days,[7]; [16],4
same,% of Potato Dextrose Sugar Agar Plate Covered with Pythium,[7]; [17],25%
same,Number of plates (4 reps) with Pythium growth after 3 days,[7]; [17],4
same,% of Potato Dextrose Sugar Agar Plate Covered with Pythium,[8]; [14],72.5%
same,Number of plates (4 reps) with Pythium growth after 3 days,[8]; [14],4
same,% of Potato Dextrose Sugar Agar Plate Covered with Pythium,[8]; [15],38.8%
same,Number of plates (4 reps) with Pythium growth after 3 days,[8]; [15],4
same,% of Potato Dextrose Sugar Agar Plate Covered with Pythium,[8]; [16],85.8%
same,Number of plates (4 reps) with Pythium growth after 3 days,[8]; [16],4
